What was measured:
[1] = test system: approximately 180 different receptors, ion channels, enzymes, transporters and kinases; assay: In vitro selectivity profile (CEREP and internal panels); type: binding; details: up to 10 μM
Protocol: The effect of SAR218645 on approximately 180 different receptors, ion channels, enzymes, transporters and kinases (see Supplementary Material Table S1) was evaluated at a contract research organization (CEREP, Celle L’Evescault, France) using established protocols or through internal studies.

human mGluR2 = human mGluR2 (Homo sapiens, UniProt Q14416); assay: Ca2+ mobilization assay, HEK293 cells expressing human mGluR2/Gα16; type: cell-based; parameters: expressed in transfected cells; host or cells: HEK293 Flp-in-T-REx (inducible), co-expressing Gα16
Sequence of human mGluR2 (Q14416 19-872): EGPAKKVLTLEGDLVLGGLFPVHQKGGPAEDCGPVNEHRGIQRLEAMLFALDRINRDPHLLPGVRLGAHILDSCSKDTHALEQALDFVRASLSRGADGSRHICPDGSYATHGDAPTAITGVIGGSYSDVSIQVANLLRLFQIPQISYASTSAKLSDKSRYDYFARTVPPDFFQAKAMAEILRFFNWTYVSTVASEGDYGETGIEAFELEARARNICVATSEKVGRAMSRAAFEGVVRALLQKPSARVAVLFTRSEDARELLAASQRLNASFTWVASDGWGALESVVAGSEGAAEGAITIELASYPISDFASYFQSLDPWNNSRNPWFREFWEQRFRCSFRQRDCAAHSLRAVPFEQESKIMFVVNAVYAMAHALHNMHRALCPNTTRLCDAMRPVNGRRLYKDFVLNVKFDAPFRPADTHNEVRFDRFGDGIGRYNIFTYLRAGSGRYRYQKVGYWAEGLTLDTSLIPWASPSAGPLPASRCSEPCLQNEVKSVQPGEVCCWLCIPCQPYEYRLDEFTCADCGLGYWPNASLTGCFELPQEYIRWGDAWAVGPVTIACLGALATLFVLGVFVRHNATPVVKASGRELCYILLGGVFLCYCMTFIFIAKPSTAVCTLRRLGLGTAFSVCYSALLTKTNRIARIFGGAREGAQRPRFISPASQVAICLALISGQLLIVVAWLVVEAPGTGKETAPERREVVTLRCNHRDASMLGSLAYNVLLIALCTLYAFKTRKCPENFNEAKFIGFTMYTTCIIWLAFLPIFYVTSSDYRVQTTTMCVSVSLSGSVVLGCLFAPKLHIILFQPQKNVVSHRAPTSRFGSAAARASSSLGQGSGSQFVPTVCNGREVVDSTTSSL

rat mGluR2 [2] = target: T1, rat mGluR2 (Rattus norvegicus, UniProt P31421); assay: [3H]LY341495 binding to membranes; parameters: expressed in transfected cells; host or cells: inducible HEK-293 cell line (membranes); details: 10 μM SAR218645
T1 sequence (P31421 19-872): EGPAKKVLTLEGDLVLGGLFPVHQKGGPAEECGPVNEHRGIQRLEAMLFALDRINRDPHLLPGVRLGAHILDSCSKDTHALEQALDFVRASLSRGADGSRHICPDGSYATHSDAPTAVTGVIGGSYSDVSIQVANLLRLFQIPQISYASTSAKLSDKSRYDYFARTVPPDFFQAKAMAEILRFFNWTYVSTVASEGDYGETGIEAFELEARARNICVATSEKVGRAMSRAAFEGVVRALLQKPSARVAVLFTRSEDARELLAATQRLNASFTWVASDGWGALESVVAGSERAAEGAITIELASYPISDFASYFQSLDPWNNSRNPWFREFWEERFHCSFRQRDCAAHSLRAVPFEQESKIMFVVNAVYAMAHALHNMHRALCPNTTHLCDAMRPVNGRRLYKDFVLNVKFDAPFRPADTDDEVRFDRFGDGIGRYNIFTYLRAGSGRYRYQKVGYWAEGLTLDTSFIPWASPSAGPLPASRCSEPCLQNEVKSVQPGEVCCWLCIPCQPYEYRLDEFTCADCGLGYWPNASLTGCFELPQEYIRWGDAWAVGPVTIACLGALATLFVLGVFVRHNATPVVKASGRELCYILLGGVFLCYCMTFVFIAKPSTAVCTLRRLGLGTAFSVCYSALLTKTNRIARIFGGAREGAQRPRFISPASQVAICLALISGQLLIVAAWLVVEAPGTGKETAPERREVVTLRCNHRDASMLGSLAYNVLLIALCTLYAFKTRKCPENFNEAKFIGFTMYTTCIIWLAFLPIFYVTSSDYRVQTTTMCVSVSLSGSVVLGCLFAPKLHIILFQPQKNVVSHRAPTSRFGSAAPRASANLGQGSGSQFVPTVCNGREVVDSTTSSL
Protocol: Binding assay was adapted from Johnson et al.[29]. […] Addition of 5–10 μg membrane protein initiated the incubation. After 45 min at room temperature, the incubation was terminated by rapid filtration followed by scintillation counting. Ki’s were calculated using 4-parameter curve fitting.

Swiss mice = assay: MK-801-induced locomotor hyperactivity; type: in vivo
Protocol: An actimeter device consisting of a cylinder (20 cm diameter, 9.5 cm height, Apelex, France) equipped with two perpendicular light beams located 1.5 cm above the floor was used. Mice from the transgenic batches (DAT^−/− and NMDA Nr1^neo−/−) were orally pretreated with either SAR218645 or vehicle and individually isolated in boxes for a period of 60 min. Animals were then placed in the actimeter device and locomotor activity (number of interrupted light beams) was recorded for a period of 30 or 60 min. Mice in which the expression of the dopamine transporter (DAT) was knocked out (i.e., the DAT^−/− mouse) have been proposed as a reliable model of the positive symptoms of schizophrenia. In these mice, dopamine levels in the synapse are dramatically elevated and these animals are hyperactive and agitated in behavioral tests. […] Immediately following amphetamine challenge, 30 min after MK-801 challenge, mice were placed in the actimeter devices and locomotor activity was recorded for a period of 30 (DAT^−/−) or 60 (NMDA Nr1^neo−/−) min.
Statistical analyses were performed using SAS V8.2 software (SAS Institute, Cary, NC, USA). The number of light beam breaks (motility count) recorded for 30 or 60 min were analyzed using one-way ANOVAs using a fixed factor of challenge or genotype and complementary post hoc (Newman-Keuls) tests were performed. […]

rat mGluR2 [3] = target: T1, rat mGluR2; assay: Ca2+ mobilization assay, HEK293 cells expressing rat mGluR2/Gα16
Protocol: Recombinant rat and human mGluR2 receptors were stably expressed in HEK293 Flp-in-T-REx cell lines with Gα16. Receptor and G-protein expression were induced with either tetracycline or doxycycline 20–24 hr before the experiment. Growth medium was replaced with HBSS buffer containing Ca^2+ and Mg^2+, 20 mM HEPES. Calcium mobilization was monitored using Fluo-4 or Calcium-3 dye on a Functional Drug Screening System (FDSS) reader (Hamamatsu Photonics, Hamamatsu City, Japan). Responses were measured as peak fluorescence intensity minus basal fluorescence. EC50 values were calculated using 4-parameter curve fitting.

NMDA Nr1neo−/− mice = assay: Y-maze test; type: in vivo
Protocol: The apparatus consisted of 3 arms in gray PVC in the shape of a Y. Arms were 28 cm long, 6 cm wide with walls 15 cm high. Movement was tracked manually using in-house software by an experimenter located in an adjacent room via a camera mounted directly above the maze. The animal was placed in an arm facing the center (Arm A) for 5 min. A correct alternation occurred when the animal moved to the other 2 arms without retracing its steps (i.e. Arm A to B to C). Movements such as ABA were incorrect. Based on the movement over the entire session, the percentage of correct alternations was calculated [i.e., (Total number of alternations × 100)/(Total number of arm entries-2)]. SAR218645 was administered po at 0.1 mg/kg 60 min prior to testing to either wild-type or NMDA Nr1^neo−/− mice. No dose-response effect was investigated due to the limited number of transgenic animals available. Statistics performed on total arm entries and percentage alternation consisted of using a two-way ANOVA, followed by a post-hoc Winer test for individual comparisons. Student’s t-test was used to compare the performance of each group with the chance level. Ten to eleven animals per group were used.

CD-1 mice = assay: DOI-induced head-twitch behaviors; type: in vivo
Protocol: Male CD-1 mice weighing 25–30 g at the time of testing were used. Animals were brought into the testing area and allowed at least 30 min to acclimatize. The behavior observation was conducted in a wire test chamber measuring 10 cm^3. SAR218645 or the selective 5-HT2A receptor antagonist, volinanserin, was administered po at various times before administration of DOI. DOI was injected ip at a dose of 1 mg/kg. Five minutes later behavioral observation commenced. A trained (blinded) observer continuously watched the mice for 20 min and noted the number of DOI-induced head twitches during this time. The number of head twitches per group was averaged and SAR218645 or volinanserin plus DOI were compared to DOI alone. Three to eight animals per group were used.

rat mGluR3 = target: T2, rat mGluR3 (Rattus norvegicus, UniProt P31422); assay: [3H]LY341495 binding to membranes
T2 construct: expressed in transfected cells; host or cells: inducible HEK-293 cell line (membranes)
T2 sequence (P31422 23-879): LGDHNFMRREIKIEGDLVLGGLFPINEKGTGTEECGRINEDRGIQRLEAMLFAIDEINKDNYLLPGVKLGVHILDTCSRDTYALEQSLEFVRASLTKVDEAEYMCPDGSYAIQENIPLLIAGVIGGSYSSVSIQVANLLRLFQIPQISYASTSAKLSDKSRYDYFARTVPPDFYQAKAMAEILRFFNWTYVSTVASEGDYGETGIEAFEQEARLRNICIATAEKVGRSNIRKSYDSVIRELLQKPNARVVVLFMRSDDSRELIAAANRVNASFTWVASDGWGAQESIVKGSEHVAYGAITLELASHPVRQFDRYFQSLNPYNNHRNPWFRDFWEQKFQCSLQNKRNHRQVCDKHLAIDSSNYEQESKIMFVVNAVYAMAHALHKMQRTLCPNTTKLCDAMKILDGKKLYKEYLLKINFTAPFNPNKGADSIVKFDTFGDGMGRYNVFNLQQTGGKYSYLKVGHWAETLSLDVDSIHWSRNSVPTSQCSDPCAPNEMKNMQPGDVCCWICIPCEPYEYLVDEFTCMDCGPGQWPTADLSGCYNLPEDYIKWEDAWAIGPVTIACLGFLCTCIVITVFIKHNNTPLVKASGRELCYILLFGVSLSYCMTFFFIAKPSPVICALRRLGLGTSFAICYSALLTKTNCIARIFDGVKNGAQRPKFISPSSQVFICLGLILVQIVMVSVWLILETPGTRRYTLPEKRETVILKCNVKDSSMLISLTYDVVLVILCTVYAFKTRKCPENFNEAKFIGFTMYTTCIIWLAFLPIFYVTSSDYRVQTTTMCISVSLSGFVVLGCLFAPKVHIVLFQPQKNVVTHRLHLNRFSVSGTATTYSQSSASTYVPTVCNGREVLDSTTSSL
Protocol: Membranes were prepared from an inducible HEK-293 cell line expressing rat mGluR2 or mGluR3. Binding assay was adapted from Johnson et al.[29]. Briefly, [^3H]LY341495 (1.4 nM) was evaluated for binding in the presence or in the absence of orthosteric and allosteric ligands. […] Addition of 5–10 μg membrane protein initiated the incubation. After 45 min at room temperature, the incubation was terminated by rapid filtration followed by scintillation counting. Ki’s were calculated using 4-parameter curve fitting.

mice = test system: mice; parameters: method as in earlier work; details: cited from earlier work

CC1(C)CCc2cc(OC[C@@H]3Cn4ccc(=O)nc4O3)ccc21 [SAR218645, (S)-2-(1,1-dimethyl-indan-5-yloxymethyl)-2,3-dihydro-oxazolo[3,2-a]pyrimidin-7-one]
inhibition of radioligand binding, panel [1]: no interaction
maximal potentiation of the glutamate response (human mGluR2): approximately 10 fold
inhibition of [3H]LY341495 binding by compound alone (rat mGluR2 [2]): not inhibited
lowering of the Ki of glutamate (rat mGluR2 [2]): 3.5 fold
maximal binding, glutamate in the presence of SAR218645 (rat mGluR2 [2]; Fig. 5B): 90%
effect on locomotor activity (Swiss mice; MK-801 0.2 mg/kg ip, SAR218645 po): no effects
Minimal active dose (Swiss mice; dose-range 0.1–10, po, Swiss mice): >10 mg/kg
effect on response to EC10 glutamate (rat mGluR2 [3]; EC10 concentration (100 nM) of glutamate): enhanced sensitivity to glutamate
intrinsic agonism (compound alone) (rat mGluR2 [3]; absence of glutamate): no effect per se
effect on maximal response to glutamate (rat mGluR2 [3]; increasing concentrations of SAR218645): no significant increase
enhancement of glutamate potency (leftward shift of glutamate concentration-response curve) (rat mGluR2 [3]; increasing concentrations of SAR218645, HEK293 rat mGluR2/Gα16): approximately 25 fold
spontaneous alternations versus saline-treated transgenic animals (NMDA Nr1neo−/− mice; 0.1 mg/kg po, P < 0.05): significantly more spontaneous alternations
Minimal active dose (NMDA Nr1neo−/− mice; 0.1, po): 0.1 mg/kg
Minimal active dose (CD-1 mice; dose-range 1–10, po, CD-1 mice): 3 mg/kg
effect on DOI-induced head twitches (CD-1 mice; po, DOI 1 mg/kg ip, significant at 3 and 10 mg/kg): dose-dependently inhibited
effect on [3H]LY341495 binding, compound alone (rat mGluR3; applied alone): no effect
effect on glutamate-mediated inhibition of [3H]LY341495 binding (rat mGluR3; with glutamate): nor did the drug affect
effect on the activity of risperidone in the active avoidance test (mice): did not interfere
